Like-named read-outs stand apart in the source and are kept apart here.

Usually IC50 stands for the point on the concentration scale where inhibition reaches its midpoint.

One experiment deals with T1, human TLR7 (Homo sapiens, UniProt Q9NYK1).
T1 sequence (Q9NYK1 27-1049): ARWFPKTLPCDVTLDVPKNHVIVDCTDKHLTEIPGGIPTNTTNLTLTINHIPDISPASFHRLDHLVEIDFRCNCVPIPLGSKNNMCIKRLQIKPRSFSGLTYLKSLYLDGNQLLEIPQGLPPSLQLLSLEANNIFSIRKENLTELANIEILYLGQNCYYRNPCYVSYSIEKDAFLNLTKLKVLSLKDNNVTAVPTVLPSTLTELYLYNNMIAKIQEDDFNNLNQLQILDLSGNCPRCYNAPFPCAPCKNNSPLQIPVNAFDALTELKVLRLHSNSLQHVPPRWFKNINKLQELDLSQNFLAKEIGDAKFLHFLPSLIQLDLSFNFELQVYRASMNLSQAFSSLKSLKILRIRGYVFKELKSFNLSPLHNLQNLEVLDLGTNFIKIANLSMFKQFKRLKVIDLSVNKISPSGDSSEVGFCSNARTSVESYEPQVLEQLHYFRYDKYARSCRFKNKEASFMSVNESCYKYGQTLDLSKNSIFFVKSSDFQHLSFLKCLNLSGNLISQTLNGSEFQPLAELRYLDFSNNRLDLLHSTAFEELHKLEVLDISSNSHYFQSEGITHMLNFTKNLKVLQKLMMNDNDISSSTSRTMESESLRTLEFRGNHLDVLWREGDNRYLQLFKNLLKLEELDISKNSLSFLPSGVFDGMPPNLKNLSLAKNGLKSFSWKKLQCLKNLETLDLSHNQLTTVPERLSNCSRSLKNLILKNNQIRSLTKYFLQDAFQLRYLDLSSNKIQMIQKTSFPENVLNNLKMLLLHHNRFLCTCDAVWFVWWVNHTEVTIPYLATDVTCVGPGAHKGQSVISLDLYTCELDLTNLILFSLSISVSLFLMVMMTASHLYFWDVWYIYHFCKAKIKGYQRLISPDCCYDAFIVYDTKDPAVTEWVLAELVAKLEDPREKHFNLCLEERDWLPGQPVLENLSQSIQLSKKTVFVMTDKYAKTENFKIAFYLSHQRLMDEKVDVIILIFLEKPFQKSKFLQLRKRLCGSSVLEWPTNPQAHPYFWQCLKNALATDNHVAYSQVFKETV
Briefly: HEK-Blue hTLR7 SEAP reporter gene inhibition assay. Type of experiment: cell-based. The method, then: HEK-Blue cells with stable expression of human TLR7 or TLR8 were used in the evaluation of inhibitory activity of compounds in the present invention against TLR7 or TLR8, by using its ability to induce the SEAP reporting gene under the control of the fusion of IFN-β minimum promoters into five NF-κB and ap-1 binding sites, as follows: hTLR7 HEK-Blue cells (Invivogen, 80, 000 cells per well) or hTLR8 HEK-Blue cells (60, 000 cells per well) were added to a 96-well cell culture plate. A solution of the testing compounds were added to each well, with the final concentration of tested compounds in the medium ranged from 0.001 to 36 µM and the culture was incubated for 15 minutes. M5049 was used as positive controls in the testing.
Then a TLR7 ligand (Gardiquimod, purchased from MedChemExpress, with final concentration of ligand in cell culture medium kept at 10 µM) or a TLR8 ligand (purchased from MedChemExpress with final concentration in cell culture media at 10 µM) and the culture was incubated for 20 hours. According to the manufacturer's instructions, a HEK-Blue reagent Quanti-blue (Invivogen) was used to detect the SEAP levels in cell cultures. The half […] concentration or IC50 was calculated by using GraphPad Prism. […] Table 1: Activities of examples in this invention to hTLR7/8 in HEK-Blue Cells
On the technique in general: A reporter such as luciferase makes a cellular process visible.

For a further experiment, the target named is T2, human TLR8 (Homo sapiens, UniProt Q9NR97).
T2 construct: expressed in transfected cells
T2 sequence (Q9NR97 27-1041): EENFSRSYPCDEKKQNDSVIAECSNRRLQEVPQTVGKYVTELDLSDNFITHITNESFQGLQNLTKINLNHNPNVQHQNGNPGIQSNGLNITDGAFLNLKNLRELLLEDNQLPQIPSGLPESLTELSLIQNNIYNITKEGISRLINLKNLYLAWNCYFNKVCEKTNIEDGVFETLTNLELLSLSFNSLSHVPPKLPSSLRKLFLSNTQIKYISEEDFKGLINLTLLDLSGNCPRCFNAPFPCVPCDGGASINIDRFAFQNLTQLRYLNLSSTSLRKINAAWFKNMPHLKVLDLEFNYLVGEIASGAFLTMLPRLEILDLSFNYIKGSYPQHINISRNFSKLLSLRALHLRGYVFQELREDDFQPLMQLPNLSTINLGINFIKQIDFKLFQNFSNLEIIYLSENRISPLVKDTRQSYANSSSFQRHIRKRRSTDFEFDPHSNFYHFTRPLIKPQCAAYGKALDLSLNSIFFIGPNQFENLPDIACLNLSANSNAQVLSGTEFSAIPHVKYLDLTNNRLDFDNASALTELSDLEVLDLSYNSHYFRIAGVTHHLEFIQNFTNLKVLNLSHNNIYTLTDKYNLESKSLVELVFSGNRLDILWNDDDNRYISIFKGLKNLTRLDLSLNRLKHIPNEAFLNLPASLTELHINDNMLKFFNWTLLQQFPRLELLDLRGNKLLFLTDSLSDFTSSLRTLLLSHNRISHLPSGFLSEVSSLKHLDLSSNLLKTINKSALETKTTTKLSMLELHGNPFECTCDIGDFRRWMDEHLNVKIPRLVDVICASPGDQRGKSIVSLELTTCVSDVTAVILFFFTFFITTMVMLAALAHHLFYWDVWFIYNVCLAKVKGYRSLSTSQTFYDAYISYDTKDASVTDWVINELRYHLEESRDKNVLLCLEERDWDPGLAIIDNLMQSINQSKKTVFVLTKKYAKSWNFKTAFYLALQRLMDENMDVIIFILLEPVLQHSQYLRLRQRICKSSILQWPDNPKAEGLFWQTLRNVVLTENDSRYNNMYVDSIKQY
As to the kind of experiment: HEK-Blue hTLR8 SEAP reporter gene inhibition assay. The class given is cell-based. A digest of the protocol:
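Cells seeded (TLR7 line 80,000, TLR8 line 60,000 per well), compound added at 0.001–36 µM final for 15 min, then agonist at 10 µM final (Gardiquimod for TLR7) for 20 h. SEAP measured with Quanti-Blue; IC50 fitted.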

Setting [1] is: hTLR7 HEK-Blue cells, TLR7 ligand Gardiquimod 10 µM, 20 hours, SEAP by Quanti-blue, class symbols, read-out: HEK-Blue hTLR7 IC50.
Where [2] appears, read: hTLR8 HEK-Blue cells, TLR8 ligand 10 µM, 20 hours, SEAP by Quanti-blue, class symbols, read-out: HEK-Blue hTLR8 IC50.

Regarding `CC1Cc2nn3c(c2CN1)CN(c1ccc(C#N)n2ncc(F)c12)C[C@H]3C` (stereo partly drawn) [Example I-11, 4-((7R)-3,7-dimethyl-1,3,4,7,8,10-hexahydropyrido[4',3':3,4]pyrazolo[1,5-a]pyrazin-9(2H)-yl)-3-fluoropyrazolo[1,5-a]pyridine-7-carbonitrile], the IC50 on human TLR7 (setting [1]) is less than 0.05 µM; at human TLR8 (setting [2]), less than 0.1 µM.

With `CC1CNCc2c1nn1c2CN(c2ccc(C#N)n3ncc(F)c23)C[C@H]1C` (stereo partly drawn) [Example I-12, 4-((7R)-4,7-dimethyl-1,3,4,7,8,10-hexahydropyrido[4',3':3,4]pyrazolo[1,5-a]pyrazin-9(2H)-yl)-3-fluoropyrazolo[1,5-a]pyridine-7-carbonitrile], the IC50 is less than 0.05 µM on human TLR7 (setting [1]) and less than 0.1 µM at human TLR8 (setting [2]).

`C[C@@H]1CN(c2ccc(C#N)n3ncc(F)c23)Cc2c3c(nn21)[C@@H](C)NCC3` [Example I-21, 4-((4R,7R)-4,7-dimethyl-3,4,7,8,9,10-hexahydropyrido[3',4':3,4]pyrazolo[1,5-a]pyrazin-2(1H)-yl)-3-fluoropyrazolo[1,5-a]pyridine-7-carbonitrile]: the IC50 was less than 0.05 µM on human TLR7 (setting [1]) and less than 0.1 µM at human TLR8 (setting [2]).

Regarding `C[C@@H]1CN(c2ccc(C#N)n3ncc(F)c23)Cc2c3c(nn21)CC(N(C)C)CC3` (stereo partly drawn) [Example I-27, 4-((4R)-8-(dimethylamino)-4-methyl-3,4,7,8,9,10-hexahydropyrazino[1,2-b]indazol-2(1H)-yl)-3-fluoropyrazolo[1,5-a]pyridine-7-carbonitrile], the IC50 on human TLR7 (setting [1]) is more than 0.05 µM; on human TLR8 (setting [2]), less than 0.1 µM.

Turning to `C[C@@H]1CN(c2ccc(C#N)n3ncc(F)c23)Cc2c3c(nn21)CN(Cc1cn[nH]c1)CC3` [Example I-28, (R)-4-(8-((1H-pyrazol-4-yl)methyl)-4-methyl-3,4,7,8,9,10-hexahydropyrido[3',4':3,4]pyrazolo[1,5-a]pyrazin-2(1H)-yl)-3-fluoropyrazolo[1,5-a]pyridine-7-carbonitrile], the IC50 was more than 0.05 µM on human TLR7 (setting [1]) and less than 0.1 µM at human TLR8 (setting [2]).

Turning to `CC1Cc2c(nn3c2CN(c2ccc(C#N)n4ncc(F)c24)C[C@H]3C)CN1` (stereo partly drawn) [Example I-30, 4-((4R)-4,9-dimethyl-3,4,7,8,9,10-hexahydropyrido[3',4':3,4]pyrazolo[1,5-a]pyrazin-2(1H)-yl)-3-fluoropyrazolo[1,5-a]pyridine-7-carbonitrile], the IC50 is less than 0.05 µM at human TLR7 (setting [1]) and less than 0.1 µM on human TLR8 (setting [2]).

`C[C@@H]1CN(c2ccc(C#N)n3ncc(F)c23)Cc2c3c(nn21)CN[C@@H](C)C3` [Example I-30a]: the values for the IC50 on human TLR7 (setting [1]) and on human TLR8 (setting [2]) were less than 0.05 µM and less than 0.1 µM, respectively.

Consider `C[C@@H]1Cc2c(nn3c2CN(c2ccc(C#N)n4ncc(F)c24)C[C@H]3C)CN1` [Example I-30b], for which the results for the half-inhibitory concentration (IC50) at human TLR7 (setting [1]) and at human TLR8 (setting [2]) were less than 0.05 µM and less than 0.1 µM, respectively.

Regarding `C[C@@H]1CN(c2ccc(C#N)n3ncc(F)c23)Cc2c3c(nn21)C(CO)NCC3` (stereo partly drawn) [Example I-33, 3-Fluoro-4-((4R)-7-(hydroxymethyl)-4-methyl-3,4,7,8,9,10-hexahydropyrido[3',4':3,4]pyrazolo[1,5-a]pyrazin-2(1H)-yl)pyrazolo[1,5-a]pyridine-7-carbonitrile], the IC50 at human TLR7 (setting [1]) was more than 0.05 µM; on human TLR8 (setting [2]), less than 0.1 µM.

Take `C[C@@H]1CN(c2ccc(C#N)n3ncc(F)c23)Cc2c3c(nn21)CC(N1CCC(O)C1)CC3` (stereo partly drawn) [Example I-34, 3-Fluoro-4-((4R)-8-(3-hydroxypyrrolidin-1-yl)-4-methyl-3,4,7,8,9,10-hexahydropyrazino[1,2-b]indazol-2(1H)-yl)pyrazolo[1,5-a]pyridine-7-carbonitrile]: the figures for the IC50 on human TLR7 (setting [1]) and on human TLR8 (setting [2]) were less than 0.05 µM and less than 0.1 µM, respectively.

For the molecule `C[C@@H]1NCCc2c1nn1c2CN(c2ccc(C#N)n3ncc(F)c23)C[C@H]1C` [Example I-39, 4-((4R,7S)-4,7-dimethyl-3,4,7,8,9,10-hexahydropyrido[3',4':3,4]pyrazolo[1,5-a]pyrazin-2(1H)-yl)-3-fluoropyrazolo[1,5-a]pyridine-7-carbonitrile], the results for the IC50 on human TLR7 (setting [1]) and at human TLR8 (setting [2]) were less than 0.05 µM and less than 0.1 µM, respectively.

With `C[C@@H]1CN(c2ccc(C#N)n3ncc(F)c23)Cc2c3c(nn21)CNCC3CO` (stereo partly drawn) [Example I-40, 3-Fluoro-4-((4R)-10-(hydroxymethyl)-4-methyl-3,4,7,8,9,10-hexahydropyrido [3',4':3,4]pyrazolo[1,5-a]pyrazin-2(1H)-yl)pyrazolo[1,5-a]pyridine-7-carbonitrile], the IC50 at human TLR7 (setting [1]) was more than 0.05 µM; on human TLR8 (setting [2]) it was less than 0.1 µM.

For `C[C@@H]1CN(c2ccc(C#N)n3ncc(F)c23)Cc2c3c(nn21)CN[C@H](CO)C3` [Example I-43, 3-fFuoro-4-((4R,9S)-9-(hydroxymethyl)-4-methyl-3,4,7,8,9,10-hexahydropyrido [3',4':3,4]pyrazolo[1,5-a]pyrazin-2(1H)-yl)pyrazolo[1,5-a]pyridine-7-carbonitrile], the half-inhibitory concentration (IC50) against human TLR7 (HEK-Blue hTLR7 IC50 (µM)) is less than 0.05 µM; against human TLR8 (HEK-Blue hTLR8 IC50 (µM)), less than 0.1 µM.

For `C[C@@H]1CN(c2ccc(C#N)n3ncc(F)c23)Cc2c3c(nn21)C(C)(C)NCC3` [Example I-45, (R)-3-Fluoro-4-(4,7,7-trimethyl-3,4,7,8,9,10-hexahydropyrido[3',4':3,4]pyrazolo[1,5-a]pyrazin-2(1H)-yl)pyrazolo[1,5-a]pyridine-7-carbonitrile], the IC50 at human TLR7 (setting [1]) was less than 0.05 µM; at human TLR8 (setting [2]), less than 0.1 µM.

With `C[C@@H]1CN(c2ccc(C#N)n3ncc(F)c23)Cc2c3c(nn21)C1CCC(C3)N1` (stereo partly drawn) [Example I-52, 3-Fluoro-4-((4R)-4-methyl-1,3,4,7,8,9,10,11-octahydro-2H-7,10-epiminocyclohepta [3,4]pyrazolo[1,5-a]pyrazin-2-yl)pyrazolo[1,5-a]pyridine-7-carbonitrile], the IC50 at human TLR7 (setting [1]) is less than 0.05 µM; at human TLR8 (setting [2]), less than 0.1 µM.

Source of the values: patent EP4644396A1 (Visionpharma (Nantong) Co., Ltd, priority 2022, dated 2024).
